Values quoted from earlier work in patent publication US6458386B1, “Medicaments based on polymers composed of methacrylamide-modified gelatin” (Innogenetics N.V., priority 1997, dated 2002).

What was measured:
large cutaneous burns = conditions: children
chronic pressure ulcers = conditions: humans
[1] = tested on: full thickness macular holes; conditions: human eyes

Human Growth Hormone: hormone
wound healing of large cutaneous burns (large cutaneous burns): accelerate wound healing

Platelet Derived Growth Factor
wound healing of chronic pressure ulcers (chronic pressure ulcers): wound healing stimulator

Transforming Growth Factor-β
effect in treatment of full thickness macular holes [1]: beneficial effects
